# Measured values from the kinase profiling compilation of Christmann-Franck et al. (2016).
# Columns and labels:
# Details in all cases: compound 10.0 µM
# AAK1 (human) = AAK1 (human) (UniProt Q2M2I8)
# ADCK3 (human) = ADCK3 (human) (UniProt Q8NI60)
# BMP2K (human) = BMP2K (human) (UniProt Q9NSY1)
# CDC2L2 (human) = CDC2L2 (human) (UniProt Q9UQ88)
# CDC42BPA (human) = CDC42BPA (human) (UniProt Q5VT25)
# CDK14 (human) = CDK14 (human) (UniProt O94921)
# CDK16 (human) = CDK16 (human) (UniProt Q00536)
# CDK4 CCND3 (human) = CDK4 CCND3 (human) (UniProt P11802+P30281)
# CDK7 (human) = CDK7 (human) (UniProt P50613)
# CDKL2 (human) = CDKL2 (human) (UniProt Q92772)
# CLK1 (human) = CLK1 (human) (UniProt P49759)
# DYRK1A (human) = DYRK1A (human) (UniProt Q13627)
# [1] = tested on: EIF2AK4 KD2 (human), Q9P2K8 [S808G]
# EPHA4 (human) = EPHA4 (human) (UniProt P54764)
# ERBB2 (human) = ERBB2 (human) (UniProt P04626)
# MAP3K2 (human) = MAP3K2 (human) (UniProt Q9Y2U5)
# MAP4K1 (human) = MAP4K1 (human) (UniProt Q92918)
# MAPKAPK5 (human) = MAPKAPK5 (human) (UniProt Q8IW41)
# MARK2 (human) = MARK2 (human) (UniProt Q7KZI7)
# MERTK (human) = MERTK (human) (UniProt Q12866)
# MKNK1 (human) = MKNK1 (human) (UniProt Q9BUB5)
# MST4 (human) = MST4 (human) (UniProt Q9P289)
# MUSK (human) = MUSK (human) (UniProt O15146)
# MYLK2 (human) = MYLK2 (human) (UniProt Q9H1R3)
# NEK5 (human) = NEK5 (human) (UniProt Q6P3R8)
# NIM1 (human) = NIM1 (human) (UniProt Q8IY84)
# NTRK2 (human) = NTRK2 (human) (UniProt Q16620)
# PAK7 (human) = PAK7 (human) (UniProt Q9P286)
# PKN1 (human) = PKN1 (human) (UniProt Q16512)
# PRKAA1 (human) = PRKAA1 (human) (UniProt Q13131)
# PRKACA (human) = PRKACA (human) (UniProt P17612)
# PRKG1 (human) = PRKG1 (human) (UniProt Q13976)
# [2] = tested on: RET (human), P07949 [M918T]
# RIPK4 (human) = RIPK4 (human) (UniProt P57078)
# SIK1 (human) = SIK1 (human) (UniProt P57059)
# SRPK1 (human) = SRPK1 (human) (UniProt Q96SB4)
# SYK (human) = SYK (human) (UniProt P43405)
# TAOK1 (human) = TAOK1 (human) (UniProt Q7L7X3)
# TBK1 (human) = TBK1 (human) (UniProt Q9UHD2)
# TNK1 (human) = TNK1 (human) (UniProt Q13470)
# [3] = molecular target: TYK2 JH2 pseudokinase (human) (UniProt P29597)
# MAP3K2 (human), sequence (Q9Y2U5 whole entry, looked up): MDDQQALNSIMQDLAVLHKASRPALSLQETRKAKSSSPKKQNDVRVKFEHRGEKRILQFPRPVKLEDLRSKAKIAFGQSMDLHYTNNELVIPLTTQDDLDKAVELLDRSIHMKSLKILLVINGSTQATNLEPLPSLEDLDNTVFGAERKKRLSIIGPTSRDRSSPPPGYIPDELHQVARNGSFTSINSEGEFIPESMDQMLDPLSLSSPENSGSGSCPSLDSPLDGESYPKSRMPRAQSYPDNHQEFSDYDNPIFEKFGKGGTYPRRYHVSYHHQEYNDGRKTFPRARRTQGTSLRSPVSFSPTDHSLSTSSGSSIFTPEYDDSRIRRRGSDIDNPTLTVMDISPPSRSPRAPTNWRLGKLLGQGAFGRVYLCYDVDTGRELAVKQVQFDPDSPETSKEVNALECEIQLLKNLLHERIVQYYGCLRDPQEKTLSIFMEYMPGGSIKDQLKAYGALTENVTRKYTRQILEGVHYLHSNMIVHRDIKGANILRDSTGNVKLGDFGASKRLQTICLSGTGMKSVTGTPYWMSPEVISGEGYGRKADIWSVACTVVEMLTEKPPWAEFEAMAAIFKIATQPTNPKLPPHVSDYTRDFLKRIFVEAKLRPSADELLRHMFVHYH
# PRKAA1 (human), sequence (Q13131 whole entry, looked up): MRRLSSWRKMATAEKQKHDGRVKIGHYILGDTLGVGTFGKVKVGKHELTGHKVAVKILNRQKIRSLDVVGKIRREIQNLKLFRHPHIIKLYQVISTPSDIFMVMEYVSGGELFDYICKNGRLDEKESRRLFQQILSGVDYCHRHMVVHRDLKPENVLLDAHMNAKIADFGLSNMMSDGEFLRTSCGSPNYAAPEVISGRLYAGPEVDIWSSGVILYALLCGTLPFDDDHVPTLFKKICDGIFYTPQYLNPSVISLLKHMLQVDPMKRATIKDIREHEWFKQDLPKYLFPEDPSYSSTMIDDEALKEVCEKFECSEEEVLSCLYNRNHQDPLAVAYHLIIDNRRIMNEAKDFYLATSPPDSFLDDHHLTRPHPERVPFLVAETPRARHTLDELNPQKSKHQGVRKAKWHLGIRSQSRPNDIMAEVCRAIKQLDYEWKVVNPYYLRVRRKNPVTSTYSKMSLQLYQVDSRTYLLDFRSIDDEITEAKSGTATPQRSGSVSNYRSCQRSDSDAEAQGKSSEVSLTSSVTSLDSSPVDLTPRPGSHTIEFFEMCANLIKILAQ
# CDK14 (human), sequence (O94921 whole entry, looked up): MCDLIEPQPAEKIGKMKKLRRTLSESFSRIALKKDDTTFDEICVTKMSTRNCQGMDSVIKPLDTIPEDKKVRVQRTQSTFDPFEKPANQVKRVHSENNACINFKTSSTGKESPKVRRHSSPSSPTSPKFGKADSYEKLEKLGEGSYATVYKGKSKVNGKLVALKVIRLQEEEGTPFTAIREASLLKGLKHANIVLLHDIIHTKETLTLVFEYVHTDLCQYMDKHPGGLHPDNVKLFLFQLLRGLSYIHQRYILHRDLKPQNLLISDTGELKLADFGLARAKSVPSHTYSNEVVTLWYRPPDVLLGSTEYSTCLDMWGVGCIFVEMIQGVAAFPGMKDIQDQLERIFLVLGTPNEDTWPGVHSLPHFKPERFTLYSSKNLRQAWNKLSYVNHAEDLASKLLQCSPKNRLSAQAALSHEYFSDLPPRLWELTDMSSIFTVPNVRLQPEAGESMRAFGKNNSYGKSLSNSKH
# MUSK (human), sequence (O15146 whole entry, looked up): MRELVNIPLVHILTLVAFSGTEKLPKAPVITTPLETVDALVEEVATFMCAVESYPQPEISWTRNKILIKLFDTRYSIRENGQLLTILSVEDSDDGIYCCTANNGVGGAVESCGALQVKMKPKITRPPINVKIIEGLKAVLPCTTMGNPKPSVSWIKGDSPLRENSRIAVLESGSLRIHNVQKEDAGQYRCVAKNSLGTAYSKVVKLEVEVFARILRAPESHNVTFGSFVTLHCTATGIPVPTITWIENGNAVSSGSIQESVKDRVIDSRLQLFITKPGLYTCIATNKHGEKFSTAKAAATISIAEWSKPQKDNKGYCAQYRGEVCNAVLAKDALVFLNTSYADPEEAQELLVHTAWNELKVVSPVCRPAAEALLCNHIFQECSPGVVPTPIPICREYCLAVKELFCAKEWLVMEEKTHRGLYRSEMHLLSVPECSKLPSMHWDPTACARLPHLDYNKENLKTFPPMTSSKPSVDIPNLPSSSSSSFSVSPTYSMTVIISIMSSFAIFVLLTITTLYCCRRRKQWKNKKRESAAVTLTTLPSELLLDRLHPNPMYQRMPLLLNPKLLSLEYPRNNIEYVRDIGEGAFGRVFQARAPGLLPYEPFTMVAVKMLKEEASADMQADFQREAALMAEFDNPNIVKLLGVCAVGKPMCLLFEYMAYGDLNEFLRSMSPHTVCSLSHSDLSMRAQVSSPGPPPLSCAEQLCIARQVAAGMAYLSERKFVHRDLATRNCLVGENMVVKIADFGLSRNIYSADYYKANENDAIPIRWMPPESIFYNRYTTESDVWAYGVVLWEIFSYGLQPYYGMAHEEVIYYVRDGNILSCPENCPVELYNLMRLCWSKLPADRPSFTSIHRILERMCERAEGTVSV
# CLK1 (human), sequence (P49759 whole entry, looked up): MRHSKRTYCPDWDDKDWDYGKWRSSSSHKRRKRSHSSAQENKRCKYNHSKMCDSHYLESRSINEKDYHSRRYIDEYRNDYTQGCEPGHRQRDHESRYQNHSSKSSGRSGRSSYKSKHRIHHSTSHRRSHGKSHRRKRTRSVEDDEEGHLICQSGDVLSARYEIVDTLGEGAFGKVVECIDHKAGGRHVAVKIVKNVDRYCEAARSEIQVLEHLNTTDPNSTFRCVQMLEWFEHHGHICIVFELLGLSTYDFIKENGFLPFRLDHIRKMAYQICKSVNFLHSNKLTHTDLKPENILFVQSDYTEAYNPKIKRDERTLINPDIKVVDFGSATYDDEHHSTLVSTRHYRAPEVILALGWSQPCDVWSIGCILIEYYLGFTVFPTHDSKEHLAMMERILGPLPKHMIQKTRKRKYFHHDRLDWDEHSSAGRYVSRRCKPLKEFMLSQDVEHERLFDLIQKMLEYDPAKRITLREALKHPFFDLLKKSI
# TNK1 (human), sequence (Q13470 whole entry, looked up): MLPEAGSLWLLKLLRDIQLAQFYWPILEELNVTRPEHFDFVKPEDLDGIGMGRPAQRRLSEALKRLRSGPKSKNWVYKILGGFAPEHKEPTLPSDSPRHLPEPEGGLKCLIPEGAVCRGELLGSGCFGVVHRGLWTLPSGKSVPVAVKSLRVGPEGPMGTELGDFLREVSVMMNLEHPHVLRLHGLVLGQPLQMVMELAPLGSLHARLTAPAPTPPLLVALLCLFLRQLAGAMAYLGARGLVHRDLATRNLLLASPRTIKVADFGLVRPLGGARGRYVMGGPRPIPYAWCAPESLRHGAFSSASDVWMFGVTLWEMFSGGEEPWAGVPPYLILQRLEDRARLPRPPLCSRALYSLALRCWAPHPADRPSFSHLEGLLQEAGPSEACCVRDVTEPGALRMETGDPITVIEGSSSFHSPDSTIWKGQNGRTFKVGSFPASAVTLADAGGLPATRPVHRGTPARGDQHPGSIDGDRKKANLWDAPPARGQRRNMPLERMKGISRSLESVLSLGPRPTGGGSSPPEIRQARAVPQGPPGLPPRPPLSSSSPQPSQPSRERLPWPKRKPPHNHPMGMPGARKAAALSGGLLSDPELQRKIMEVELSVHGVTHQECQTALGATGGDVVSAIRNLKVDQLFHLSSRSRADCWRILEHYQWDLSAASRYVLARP
# RET (human), P07949 [M918T], sequence (P07949 whole entry M918T, looked up): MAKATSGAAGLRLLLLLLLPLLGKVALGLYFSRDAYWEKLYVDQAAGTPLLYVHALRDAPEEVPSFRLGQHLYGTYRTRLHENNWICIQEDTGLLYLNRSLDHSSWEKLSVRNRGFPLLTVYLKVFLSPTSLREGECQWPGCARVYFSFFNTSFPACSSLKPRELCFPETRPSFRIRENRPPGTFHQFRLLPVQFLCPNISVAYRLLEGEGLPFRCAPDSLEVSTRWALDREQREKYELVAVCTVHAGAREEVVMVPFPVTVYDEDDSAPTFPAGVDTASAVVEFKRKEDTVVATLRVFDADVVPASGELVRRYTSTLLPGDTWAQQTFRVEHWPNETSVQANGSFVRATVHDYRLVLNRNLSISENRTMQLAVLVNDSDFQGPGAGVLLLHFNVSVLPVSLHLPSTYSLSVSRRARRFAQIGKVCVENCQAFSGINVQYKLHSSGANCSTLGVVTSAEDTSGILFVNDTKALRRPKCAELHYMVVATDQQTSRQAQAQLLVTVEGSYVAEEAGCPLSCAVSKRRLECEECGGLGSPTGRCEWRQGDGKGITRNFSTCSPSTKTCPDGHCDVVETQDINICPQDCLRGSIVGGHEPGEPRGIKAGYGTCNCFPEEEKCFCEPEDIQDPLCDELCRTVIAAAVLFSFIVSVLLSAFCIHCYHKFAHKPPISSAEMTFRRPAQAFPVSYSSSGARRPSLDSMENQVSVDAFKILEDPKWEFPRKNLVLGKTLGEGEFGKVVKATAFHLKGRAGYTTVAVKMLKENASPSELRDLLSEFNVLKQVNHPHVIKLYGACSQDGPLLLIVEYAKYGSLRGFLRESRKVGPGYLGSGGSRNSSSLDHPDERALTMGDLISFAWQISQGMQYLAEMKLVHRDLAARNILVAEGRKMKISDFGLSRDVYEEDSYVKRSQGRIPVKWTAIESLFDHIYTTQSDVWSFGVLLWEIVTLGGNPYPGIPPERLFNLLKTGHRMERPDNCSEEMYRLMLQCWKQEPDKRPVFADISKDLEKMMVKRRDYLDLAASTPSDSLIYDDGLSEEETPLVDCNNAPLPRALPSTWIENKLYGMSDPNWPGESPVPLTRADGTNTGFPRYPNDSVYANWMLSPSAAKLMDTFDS
smiles,measurement,setting,value
CNC(=O)c1cc(Oc2ccc(NC(=O)Nc3ccc(Cl)c(C(F)(F)F)c3)cc2)cc[n+]1[O-],per cent of control,AAK1 (human),100%
same,per cent of control,ADCK3 (human),86%
same,per cent of control,BMP2K (human),100%
same,per cent of control,CDC2L2 (human),99%
same,per cent of control,CDC42BPA (human),90%
same,per cent of control,CDK14 (human),3.8%
same,per cent of control,CDK16 (human),19%
same,per cent of control,CDK4 CCND3 (human),62%
same,per cent of control,CDK7 (human),5%
same,per cent of control,CDKL2 (human),0.1%
same,per cent of control,CLK1 (human),46%
same,per cent of control,DYRK1A (human),95%
same,per cent of control,[1],70%
same,per cent of control,EPHA4 (human),13%
same,per cent of control,ERBB2 (human),100%
same,per cent of control,MAP3K2 (human),100%
same,per cent of control,MAP4K1 (human),6%
same,per cent of control,MAPKAPK5 (human),100%
same,per cent of control,MARK2 (human),87%
same,per cent of control,MERTK (human),2%
same,per cent of control,MKNK1 (human),1%
same,per cent of control,MST4 (human),49%
same,per cent of control,MUSK (human),0.2%
same,per cent of control,MYLK2 (human),8.7%
same,per cent of control,NEK5 (human),100%
same,per cent of control,NIM1 (human),100%
same,per cent of control,NTRK2 (human),2.4%
same,per cent of control,PAK7 (human),82%
same,per cent of control,PKN1 (human),97%
same,per cent of control,PRKAA1 (human),36%
same,per cent of control,PRKACA (human),100%
same,per cent of control,PRKG1 (human),98%
same,per cent of control,[2],0%
same,per cent of control,RIPK4 (human),100%
same,per cent of control,SIK1 (human),66%
same,per cent of control,SRPK1 (human),100%
same,per cent of control,SYK (human),89%
same,per cent of control,TAOK1 (human),11%
same,per cent of control,TBK1 (human),100%
same,per cent of control,TNK1 (human),6.6%
same,per cent of control,[3],99%
CNC(=O)c1cc(Oc2ccc(NC(=O)Nc3ccc(Cl)c(C(F)(F)F)c3)cc2)ccn1,per cent of control,AAK1 (human),100%
same,per cent of control,ADCK3 (human),90%
same,per cent of control,BMP2K (human),65%
same,per cent of control,CDC2L2 (human),77%
same,per cent of control,CDC42BPA (human),96%
same,per cent of control,CDK14 (human),3.1%
same,per cent of control,CDK16 (human),68%
same,per cent of control,CDK4 CCND3 (human),100%
same,per cent of control,CDK7 (human),3.2%
same,per cent of control,CDKL2 (human),0.05%
same,per cent of control,CLK1 (human),29%
same,per cent of control,DYRK1A (human),100%
same,per cent of control,[1],60%
same,per cent of control,EPHA4 (human),15%
same,per cent of control,ERBB2 (human),100%
same,per cent of control,MAP3K2 (human),100%
same,per cent of control,MAP4K1 (human),19%
same,per cent of control,MAPKAPK5 (human),100%
same,per cent of control,MARK2 (human),67%
same,per cent of control,MERTK (human),2.4%
same,per cent of control,MKNK1 (human),1.6%
same,per cent of control,MST4 (human),99%
same,per cent of control,MUSK (human),0%
same,per cent of control,MYLK2 (human),22%
same,per cent of control,NEK5 (human),100%
same,per cent of control,NIM1 (human),100%
same,per cent of control,NTRK2 (human),6.1%
same,per cent of control,PAK7 (human),100%
same,per cent of control,PKN1 (human),100%
same,per cent of control,PRKAA1 (human),32%
same,per cent of control,PRKACA (human),100%
same,per cent of control,PRKG1 (human),100%
same,per cent of control,[2],0%
same,per cent of control,RIPK4 (human),100%
same,per cent of control,SIK1 (human),79%
same,per cent of control,SRPK1 (human),100%
same,per cent of control,SYK (human),77%
same,per cent of control,TAOK1 (human),12%
same,per cent of control,TBK1 (human),100%
same,per cent of control,TNK1 (human),14%
same,per cent of control,[3],93%
